Values after ≈ are worked out from the molar mass of the structure shown.

As a reminder, the MIC is the lowest concentration found to suppress growth.

For test [1], the system named is MB 5919 Trans IMP1 plasmid (MB 9798). It is filed as cell-based, Pseudomonas aeruginosa. The note with it: OprD+, efflux+.
The subject of test [2] is MB 5919 Trans pFlp-Vim2 plasmid. It is filed as cell-based, Pseudomonas aeruginosa. The following applies: OprD+, efflux+.
The subject of test [3] is Pseudomonas aeruginosa MB 5890. As to the kind of experiment: Minimum inhibitory concentrations of sentinel antibiotics (strain quality control). It is filed as cell-based. The following applies: OprD+, efflux−, parental strain.
Test [4] deals with MB 5890 Trans pFlp-Vim2 plasmid. It is filed as cell-based, Pseudomonas aeruginosa. The following applies: OprD+, efflux−.
The test system of test [5] is Pseudomonas aeruginosa MB 5919. As to the kind of experiment: Minimum inhibitory concentrations of sentinel antibiotics (strain quality control). The following applies: OprD+, efflux+, parental strain. It is filed as cell-based.
Test [6] deals with MB 5890 Trans IMP1 plasmid (MB 9799). It is filed as cell-based, Pseudomonas aeruginosa. The following applies: OprD+, efflux−.
The subject of test [7] is MB 5890 Trans pFlp-Vim1 (MB9862). Format: cell-based, Pseudomonas aeruginosa. The following applies: OprD+, efflux−.
The subject of test [8] is MB 5919 Trans pFlp-Vim1 plasmid (MB 9861). Format: cell-based, Pseudomonas aeruginosa. The note with it: OprD+, efflux+.

For the molecule `C[C@@H](O)[C@H]1C(=O)N2C(C(=O)O)=C(SCCN=CN)C[C@H]12` [Imipenem, imipenem], the MIC in test [1] was 64 µg/mL (≈ 214 µM); in test [2], more than 64 µg/mL; in test [3], 2 µg/mL (≈ 6.68 µM); in test [4] it was 32 µg/mL (≈ 107 µM); in test [5] it was 4 µg/mL (≈ 13.4 µM); in test [6] it was 32 µg/mL (≈ 107 µM). In addition, the MIC is 64 µg/mL (≈ 214 µM) in test [7] and more than 64 µg/mL in test [8].
For `C[C@@H](O)[C@H]1C(=O)N2C(C(=O)O)=C(S[C@@H]3CN[C@H](C(=O)N(C)C)C3)[C@H](C)[C@H]12` [Meropenem, meropenem], the MIC in test [1] is more than 64 µg/mL; in test [2] it was more than 64 µg/mL; in test [3], 0.5 µg/mL (≈ 1.3 µM); in test [4], 32 µg/mL (≈ 83.4 µM); in test [5], 2 µg/mL (≈ 5.22 µM); in test [6] it was 64 µg/mL (≈ 167 µM). Moreover, the results for the MIC in test [7] and in test [8] were 64 µg/mL (≈ 167 µM) and more than 64 µg/mL, respectively.

For the origin of these results see US10544130B2, “Metallo-beta-lactamase inhibitors” (priority 2015, dated 2020).
